In brackets after ≈: the same amount, converted by molar mass.
Legend:
Type in all cases: cell-based
[1] = system: Staphylococcus aureus (209-P); assay: Antibacterial activity (IC), agar as in Example 8 (Example 15, Table 48); conditions: 18 h
Protocol: (§1) The antibacterial action was evaluated by the inhibitory concentration (hereinafter abbreviated as IC) at which propagation of the bacteria cultured at 37°C for 18 hours was inhibited. Inhibition was determined by the turbidity of the medium. The expressions "IC≤100", "≤10", and "≤1" indicate that MIC-equivalent values obtained at the succesive […] dilution of the sample are 100-10 µg/ml, 10-1 µg/ml, and not more than 1 µg/ml, respectively. […] (In the subsequent Examples, the same rule applies correspondingly.) Table 39
(§2) A suitable amount of a sample was dissolved in dimethylsulfoxide (DMSO), after which the resulting solution was diluted with the same amount of sterilized distilled water to prepare a bulk sample of 1,000 µg/ml. Separately, a bacterial liquid for the test (methicillin-resistant Staphylococcus aureus (MRSA) isolated from humans) which had been cultured in Mueller-Hinton broth (product of DIFCO) was prepared and inoculated to a Mueller-Hinton agar (product of DIFCO) containing the sample so that the final inoculation amount of 10^6 CFU/ml was achieved. The final concentrations of the samples were 100, 10, and 1 µg/ml.
(§3) After culturing at 37°C for 18 hours, the antibacterial activity was evaluated in terms of IC in a manner similar to that described in Example 4.
The bacterium used for the test was Staphylococcus aureus (209-P).

[2] = system: Streptococcus aureus (TI-1); assay: Antibacterial activity (IC), agar as in Example 8 (Example 16, Table 49); conditions: 18 h
Protocol: as §1, §2, §3
In a manner similar to that described in Example 8, antibacterial activity of the invention compound was determined. The bacterium used for the test was […] aureus (TI-1).

[3] = system: Pasteurella multocida (Kobe-6); assay: Antibacterial activity (IC), agar as in Example 8 (Example 17, Table 50); conditions: 18 h, origin pig
Protocol: as §1, §2, §3
In a manner similar to that described in Example 8, antibacterial activity of the invention compound was determined. The bacterium used for the test was Pasteurella Kobe-6 (origin: pig, Pasteurella multocida).

[4] = system: methicillin-resistant Staphylococcus aureus (MRSA) from humans; assay: Antibacterial activity (IC), agar as in Example 8 (Example 19, Table 52); conditions: 18 h
Protocol: as §1, §2, §3
In a manner similar to that described in Example 8, antibacterial activity of a variety of ketonitrile derivatives shown in Table 52 was measured. The bacterium used for the test was methicillin-resistant Staphylococcus aureus (MRSA) from humans.

[5] = system: Enterococcus from fish; assay: Antibacterial activity (IC), agar as in Example 8, media with 1.5% NaCl, 25°C (Example 20, Tables 53-55); conditions: for MIC: Enterococcus Seriolicida SE94-002
Protocol: as §1, §2, §3
(§4) In a manner similar to that described in Example 8, antibacterial activity of a variety of ketonitrile derivatives shown in Tables 53-55 was measured. The bacteria used for the test were Enterococcus and Pasteurella from fish. The culture conditions were such that the media contained 1.5% NaCl, and the culture temperature was 25°C.

[6] = system: Pasteurella from fish; assay: as above; conditions: for MIC: Pasteurella piscicida KP94-02
Protocol: as §1, §2, §3, §4

[7] = Enterococcus Seriolicida KG86050
[8] = Enterococcus Seriolicida MS89060
[9] = Enterococcus Seriolicida MS89064
[10] = Enterococcus Seriolicida MS89066
[11] = Enterococcus Seriolicida MS89068
[12] = Enterococcus Seriolicida SE94-001
[13] = Enterococcus Seriolicida SE94-003
[14] = Enterococcus Seriolicida SE94-004
[15] = Enterococcus Seriolicida SE94-005

Row | Structure (SMILES) | MIC [1] [µg/mL] | MIC [2] [µg/mL] | MIC [3] [µg/mL] | MIC ([4]; MRSA strain 891179) [µg/mL] | MIC ([4]; MRSA strain 891185) [µg/mL] | MIC ([4]; MRSA strain 891187) [µg/mL] | MIC ([4]; MRSA strain 891192) [µg/mL] | MIC ([4]; MRSA strain 900048) [µg/mL] | MIC ([4]; MRSA strain 900056) [µg/mL] | IC ([5]; Enterococcus Seriolicida HI) | IC [5, 7] | IC [5, 8] | IC [5, 9] | IC [5, 10] | IC [5, 11] | IC [5, 12] | MIC [5] [µg/mL] | IC [5, 13] | IC [5, 14] | IC [5, 15] | also measured
1 | CC(Oc1cccc(Oc2ccc(Br)cc2F)c1)C(=O)C(C#N)c1ccc(Cl)c(Cl)c1 (stereo not drawn) [Compound No. 109, 4-[3-(4-bromo-2-fluorophenoxy)phenoxy]-2-(3,4-dichlorophenyl)-3-oxopentanonitrile] | 1 to 10 (≈ 1.91 to 19.1 µM) | ≤ 1 | 1 to 10 (≈ 1.91 to 19.1 µM) | 1 to 10 (≈ 1.91 to 19.1 µM) | 1 to 10 (≈ 1.91 to 19.1 µM) | 1 to 10 (≈ 1.91 to 19.1 µM) | 1 to 10 (≈ 1.91 to 19.1 µM) | 1 to 10 (≈ 1.91 to 19.1 µM) | 1 to 10 (≈ 1.91 to 19.1 µM) | ≤10 (10-1 µg/ml) | ≤10 (10-1 µg/ml) | ≤10 (10-1 µg/ml) | ≤10 (10-1 µg/ml) | ≤10 (10-1 µg/ml) | ≤10 (10-1 µg/ml) | ≤10 (10-1 µg/ml) | 1 to 10 (≈ 1.91 to 19.1 µM) | ≤10 (10-1 µg/ml) | ≤10 (10-1 µg/ml) | ≤10 (10-1 µg/ml) | MIC [6]: 1 to 10 µg/mL (≈ 1.91 to 19.1 µM)
2 | CC(Oc1cccc(Oc2ccc(Br)cc2F)c1)C(=O)C(C#N)c1cccc(Cl)c1 (stereo not drawn) [Compound No. 110, 4-[3-(4-bromo-2-fluorophenoxy)phenoxy]-2-(3-chlorophenyl)-3-oxopentanonitrile] | 1 to 10 (≈ 2.05 to 20.5 µM) | 1 to 10 (≈ 2.05 to 20.5 µM) | 10 to 100 (≈ 20.5 to 205 µM) | 1 to 10 (≈ 2.05 to 20.5 µM) | 1 to 10 (≈ 2.05 to 20.5 µM) | 1 to 10 (≈ 2.05 to 20.5 µM) | 1 to 10 (≈ 2.05 to 20.5 µM) | 1 to 10 (≈ 2.05 to 20.5 µM) | 1 to 10 (≈ 2.05 to 20.5 µM) | ≤10 (10-1 µg/ml) | ≤10 (10-1 µg/ml) | ≤10 (10-1 µg/ml) | ≤10 (10-1 µg/ml) | ≤10 (10-1 µg/ml) | ≤10 (10-1 µg/ml) | ≤10 (10-1 µg/ml) | 1 to 10 (≈ 2.05 to 20.5 µM) | ≤10 (10-1 µg/ml) | ≤10 (10-1 µg/ml) | ≤10 (10-1 µg/ml) | MIC [6]: 10 to 100 µg/mL (≈ 20.5 to 205 µM); IC ([6]; Pasteurella piscicida KP94-04): ≤100 (MIC-equivalent values obtained at the succesive 2-fold dilution of the sample are 100-10 µg/ml); IC ([6]; Pasteurella piscicida KP94-05): ≤100 (MIC-equivalent values obtained at the succesive 2-fold dilution of the sample are 100-10 µg/ml); IC ([6]; Pasteurella piscicida KP94-06): ≤100 (MIC-equivalent values obtained at the succesive 2-fold dilution of the sample are 100-10 µg/ml)
3 | CC(Oc1cccc(Oc2ccc(Br)cc2F)c1)C(=O)C(C#N)c1cccc(Br)c1 (stereo not drawn) [Compound No. 111, 4-[3-(4-bromo-2-fluorophenoxy)phenoxy]-2-(3-bromophenyl)-3-oxopentanonitrile] | 1 to 10 (≈ 1.88 to 18.8 µM) | 1 to 10 (≈ 1.88 to 18.8 µM) | 10 to 100 (≈ 18.8 to 188 µM) | 1 to 10 (≈ 1.88 to 18.8 µM) | 1 to 10 (≈ 1.88 to 18.8 µM) | 1 to 10 (≈ 1.88 to 18.8 µM) | 1 to 10 (≈ 1.88 to 18.8 µM) | 1 to 10 (≈ 1.88 to 18.8 µM) | 1 to 10 (≈ 1.88 to 18.8 µM) | ≤10 (10-1 µg/ml) | ≤10 (10-1 µg/ml) | ≤10 (10-1 µg/ml) | ≤10 (10-1 µg/ml) | ≤10 (10-1 µg/ml) | ≤10 (10-1 µg/ml) | ≤10 (10-1 µg/ml) | 1 to 10 (≈ 1.88 to 18.8 µM) | ≤10 (10-1 µg/ml) | ≤10 (10-1 µg/ml) | ≤10 (10-1 µg/ml) | MIC [6]: 10 to 100 µg/mL (≈ 18.8 to 188 µM); IC ([6]; Pasteurella piscicida KP94-04): ≤100 (MIC-equivalent values obtained at the succesive 2-fold dilution of the sample are 100-10 µg/ml); IC ([6]; Pasteurella piscicida KP94-05): ≤100 (MIC-equivalent values obtained at the succesive 2-fold dilution of the sample are 100-10 µg/ml); IC ([6]; Pasteurella piscicida KP94-06): ≤100 (MIC-equivalent values obtained at the succesive 2-fold dilution of the sample are 100-10 µg/ml)
4 | COc1cc(Oc2ccc(C(F)(F)F)cc2Cl)cc(OC(C)C(=O)C(C#N)c2ccc(Cl)c(Cl)c2)c1 (stereo not drawn) [compound 209] | 1 to 10 (≈ 1.79 to 17.9 µM) | 1 to 10 (≈ 1.79 to 17.9 µM) | 1 to 10 (≈ 1.79 to 17.9 µM) | 1 to 10 (≈ 1.79 to 17.9 µM) | 1 to 10 (≈ 1.79 to 17.9 µM) | 1 to 10 (≈ 1.79 to 17.9 µM) | 1 to 10 (≈ 1.79 to 17.9 µM) | 1 to 10 (≈ 1.79 to 17.9 µM) | 1 to 10 (≈ 1.79 to 17.9 µM) | ≤10 (10-1 µg/ml) | ≤10 (10-1 µg/ml) | ≤10 (10-1 µg/ml) | ≤10 (10-1 µg/ml) | ≤10 (10-1 µg/ml) | ≤10 (10-1 µg/ml) | ≤10 (10-1 µg/ml) | 1 to 10 (≈ 1.79 to 17.9 µM) | ≤10 (10-1 µg/ml) | ≤10 (10-1 µg/ml) | ≤10 (10-1 µg/ml) | MIC [6]: 10 to 100 µg/mL (≈ 17.9 to 179 µM); IC ([6]; Pasteurella piscicida KP94-04): ≤100 (MIC-equivalent values obtained at the succesive 2-fold dilution of the sample are 100-10 µg/ml); IC ([6]; Pasteurella piscicida KP94-05): ≤100 (MIC-equivalent values obtained at the succesive 2-fold dilution of the sample are 100-10 µg/ml); IC ([6]; Pasteurella piscicida KP94-06): ≤100 (MIC-equivalent values obtained at the succesive 2-fold dilution of the sample are 100-10 µg/ml)
5 | CC(Oc1cc(Oc2ccc(C(F)(F)F)cc2Cl)cc(Oc2ccc(C(F)(F)F)cc2Cl)c1)C(=O)C(C#N)c1ccc(Cl)c(Cl)c1 (stereo not drawn) [compound 210] | 1 to 10 (≈ 1.38 to 13.8 µM) | 1 to 10 (≈ 1.38 to 13.8 µM) | 10 to 100 (≈ 13.8 to 138 µM) | 1 to 10 (≈ 1.38 to 13.8 µM) | 1 to 10 (≈ 1.38 to 13.8 µM) | 1 to 10 (≈ 1.38 to 13.8 µM) | 1 to 10 (≈ 1.38 to 13.8 µM) | 1 to 10 (≈ 1.38 to 13.8 µM) | 1 to 10 (≈ 1.38 to 13.8 µM) | ≤10 (10-1 µg/ml) | ≤10 (10-1 µg/ml) | ≤10 (10-1 µg/ml) | ≤10 (10-1 µg/ml) | ≤10 (10-1 µg/ml) | ≤10 (10-1 µg/ml) | ≤10 (10-1 µg/ml) | 1 to 10 (≈ 1.38 to 13.8 µM) | ≤10 (10-1 µg/ml) | ≤10 (10-1 µg/ml) | ≤10 (10-1 µg/ml) | MIC [6]: 10 to 100 µg/mL (≈ 13.8 to 138 µM); IC ([6]; Pasteurella piscicida KP94-04): ≤100 (MIC-equivalent values obtained at the succesive 2-fold dilution of the sample are 100-10 µg/ml); IC ([6]; Pasteurella piscicida KP94-05): ≤100 (MIC-equivalent values obtained at the succesive 2-fold dilution of the sample are 100-10 µg/ml); IC ([6]; Pasteurella piscicida KP94-06): ≤100 (MIC-equivalent values obtained at the succesive 2-fold dilution of the sample are 100-10 µg/ml)

Reference: EP0768085A1, “ANTIBACTERIAL AGENT” (DAIICHI PHARMACEUTICAL CO., LTD., priority 1994, dated 1996)
